These results are taken from US20020128311A1, “Halocyanoacetamide antimicrobial compositions” (priority 2000, published 2002).

Data set [1] can be described thus: Stability of CMIT and DBNPA mixtures in GTA, stored at 50° C., HPLC. As to conditions: […]% DBNPA, […]% CMIT/MIT mixture. The format is physicochemical. Here is the method: Surfactants were TweenTM 20, TritonTM DF-12 or TritonTM CF-10. The compositions were stored at 50° C. for 4 weeks and the concentrations of active ingredients ([…]) in the compositions were determined by HPLC at the indicated time intervals.

Data set [2] in a line: Stability of DCOIT and DBNPA mixtures in GTA, stored at 40° C., HPLC. It counts as physicochemical. As to conditions: 4% DCOIT, […]% DBNPA. The protocol: […] […] Surfactants were TweenTM 20, TritonTM DF-12 or TritonTM CF-10. These compositions were stored at 40° C. for 6 weeks and the concentrations of active ingredients ([…]) in the compositions were determined by HPLC at the indicated time intervals.

The nature of data set [3]: Freeze/thaw stability of DCOIT/DBNPA/surfactant/GTA compositions, HPLC. The settings on record: for % DCOIT retained after Freezing and Thawing: thawed at 25° C. 5 hours, three times. The format is physicochemical. The protocol:
Samples were prepared to test the freeze/thaw stability of compositions of the present invention. The freeze/thaw test was conducted for compositions of […], surfactant and GTA prepared in Example 4. Samples (20 g each) were stored at -10° C. or -25° C. for 19 hours to be frozen; samples were then stored at 25° C. for 5 hours to be thawed. This sequence was repeated three times. Then the concentrations of active ingredients ([…]) in the compositions were determined by HPLC.

The nature of data set [4]: Solubility in glyceryl triacetate. As to conditions: based on total amount of compound and solvent.

In the case of `Cn1sc(Cl)cc1=O` [CMIT, 5-chloro-2-methyl-3-isothiazolone], the “% CMIT retained” value in data set [1] (5% Triton CF-10, 45% GTA, 0 Time) came out at 100%; in data set [1] (5% Triton CF-10, 45% GTA, 1 Week), 98%; in data set [1] (5% Triton CF-10, 45% GTA, 2 Weeks), 96%; in data set [1] (5% Triton CF-10, 45% GTA, 3 Weeks) it was 86%; in data set [1] (5% Triton CF-10, 45% GTA, 4 Weeks), 84%; in data set [1] (5% Triton DF-12, 45% GTA, 0 Time) it was 100%. Further, the “% CMIT retained” value in data set [1] (5% Triton DF-12, 45% GTA, 1 Week) was found to be 100%; in data set [1] (5% Triton DF-12, 45% GTA, 2 Weeks) it was 99%; in data set [1] (5% Triton DF-12, 45% GTA, 3 Weeks) it was 87%; in data set [1] (5% Triton DF-12, 45% GTA, 4 Weeks), 85%; in data set [1] (5% Tween 20, 45% GTA, 0 Time), 100%; in data set [1] (5% Tween 20, 45% GTA, 1 Week), 100%. For the same compound, the “% CMIT retained” value in data set [1] (5% Tween 20, 45% GTA, 2 Weeks) was 80%; in data set [1] (5% Tween 20, 45% GTA, 3 Weeks), 75%; in data set [1] (5% Tween 20, 45% GTA, 4 Weeks), 74%; in data set [1] (no surfactant, 50% GTA, 0 Time), 100%; in data set [1] (no surfactant, 50% GTA, 1 Week), 102%; in data set [1] (no surfactant, 50% GTA, 2 Weeks), 97%. Also, the “% CMIT retained” value in data set [1] (no surfactant, 50% GTA, 3 Weeks) was found to be 90%; in data set [1] (no surfactant, 50% GTA, 4 Weeks), 88%.
Consider `CCCCCCCCn1sc(Cl)c(Cl)c1=O` [DCOIT], for which the “% DCOIT retained” value in data set [2] (5% Triton CF-10, 66% GTA, 4 Weeks) stood at 96.0%; in data set [2] (5% Triton CF-10, 66% GTA, 6 Weeks), 95.6%; in data set [2] (5% Triton CF-10, 66% GTA, Time 0), 100.0%; in data set [2] (5% Triton DF-12, 66% GTA, 4 Weeks) it was 100.0%; in data set [2] (5% Triton DF-12, 66% GTA, 6 Weeks), 98.2%; in data set [2] (5% Triton DF-12, 66% GTA, Time 0), 100.0%. Further, the “% DCOIT retained” value is listed as 94.3% in data set [2] (5% Tween 20, 66% GTA, 4 Weeks); 94.0% in data set [2] (5% Tween 20, 66% GTA, 6 Weeks); 100.0% in data set [2] (5% Tween 20, 66% GTA, Time 0). Moreover, the “% DCOIT retained after Freezing and Thawing” value in data set [3] (Example 4 composition with Triton CF-10, frozen at −10° C. 19 hours) is 100.0%; in data set [3] (Example 4 composition with Triton CF-10, frozen at −25° C. 19 hours), 100.0%; in data set [3] (Example 4 composition with Triton DF-12, frozen at −10° C. 19 hours) it was 100.0%; in data set [3] (Example 4 composition with Triton DF-12, frozen at −25° C. 19 hours), 100.0%; in data set [3] (Example 4 composition with Tween 20, frozen at −10° C. 19 hours), 100.0%; in data set [3] (Example 4 composition with Tween 20, frozen at −25° C. 19 hours) it was 100.0%. For the same compound, in data set [3] (in GTA solutions in the presence of surfactants), the “physical stability (appearance) during freeze/thaw cycling” value is “clear solution, no precipitation or phase separation observed”. Further, the “solubility in glyceryl triacetate” value in data set [4] (at 5° C.) was 8 % by weight; in data set [4] (at 25° C.), 8 % by weight; in data set [4] (at 40° C.) it was 20 % by weight.
